Assay results taken from paper PMC10307885, “A Phase 1/2 trial of SRA737 (a Chk1 inhibitor) administered orally in patients with advanced cancer” (British Journal of Cancer, 2023).

Test system: patients with advanced solid tumours
Test: Phase 1/2 dose-escalation/expansion study: safety, TEAEs (NCI CTCAE v4.03), DLT, MTD, RP2D
Type: in vivo
Description: The objectives of this first-in-human, Phase 1/2, open-label, dose-escalation study of SRA737 as a single agent were to establish the safety profile, define the maximum tolerated dose (MTD) and the recommended Phase 2 dose (RP2D) and schedule, and to evaluate preliminary efficacy in prospectively selected genetically defined patients enrolled in indication-specific expansion cohorts. Secondary objectives included defining the pharmacokinetic (PK) profile of SRA737.
The study used an accelerated titration design in dose escalation beginning with single subject dose-level cohorts. Doubling of the SRA737 dose was permitted in the subsequent cohort if a dose level was determined to be safe by the cohort review committee consisting of the lead investigator, study investigators representing the site(s) currently enrolling patients, and representatives of the study sponsor. In the event of any SRA737-related adverse event Grade 2 or greater toxicity during Cycle 1, the cohort was to be expanded to 3 to 6 subjects. Thereafter the study followed a rolling 6 design wherein once the first subject completed the 7-day observation period following the first dose of SRA737, subsequent subjects in that cohort started treatment. […] Enrolment of expansion cohorts at the highest dose level determined to be safe and tolerable was initiated prior to the completion of dose escalation and determination of MTD or RP2D.
A single dose of SRA737 was given at one visit on Day −7 to Day −4 (prior to the start of Cycle 1) for PK assessments. SRA737 was then administered orally on a continuous daily dosing schedule in 28-day cycles. An accelerated titration design was used with single-patient dose-escalation cohorts starting with 20 mg SRA737 administered once daily (QD) in the first cohort, with dose doubling in subsequent single-patient cohorts. If a patient had SRA737-related Grade 2 toxicity in a dose level cohort during Cycle 1, that cohort was expanded to 3 to 6 patients, and subsequent cohorts followed a rolling six design.
Patients were assessed for DLT from the first SRA737 dose (Day −7 to Day −4) until the end of Cycle 1 (up to 35 days).
Expansion cohorts including up to 20 patients with one of the 6 specified indication-specific tumour types, were treated at SRA737 doses selected by the cohort review committee based on all available safety and PK data; expansion doses were at or below the maximum tolerated dose (MTD) from the dose-escalation phase. Patients could continue treatment until disease progression or discontinuation from study due to unacceptable toxicity, investigator/sponsor decision, or withdrawal of consent.
Safety assessments including adverse events, laboratory parameters, electrocardiograms (ECGs), and echocardiograms were conducted throughout treatment and until 30 days after the last study treatment or initiation of new anticancer treatment.
The Safety Evaluable population included all patients who received at least one dose of SRA737.
The DLT window is defined from the first dose (Day -7 to Day -4) until the end of Cycle 1 (up to 35 days).
A DLT is defined as any highly probably or probably SRA737-related event of: […]

[1] = 1300 mg QD cohort, three patients enrolled
[2] = 49 patients treated at SRA737 doses >800 mg QD
[3] = irrespective of SRA737 dose level, any grade

With `N#Cc1cnc(Nc2cc(NC[C@H]3CNCCO3)c(C(F)(F)F)cn2)cn1` [SRA737, (R)-5-((4-((morpholin-2-ylmethyl)amino)-5-(trifluoromethyl)pyridin-2-yl)amino)pyr azine-2-carbonitrile] the “Dose-limiting toxicity (DLT)” value (500 mg BID, one patient, four evaluable for DLT) was “Grade 4 thrombocytopenia”, the “Grade 1–2 TEAEs of diarrhoea” value (800 mg SRA737 dose level) was 68 % of patients and the “Grade 1–2 TEAEs of nausea” value (800 mg SRA737 dose level) was 78 % of patients. The “Grade 1–2 TEAEs of vomiting” value (800 mg SRA737 dose level) was 50 % of patients, the “patients with Grade 3 diarrhoea (GI toxicity above Grade 2)” value (800 mg dose level) was “one” and the “Dose-limiting toxicities (DLTs)” value (1000 mg QD dose-escalation cohort (or any lower-dose cohorts)) was “No DLTs”. The “patients requiring dose reduction to 600 mg due to GI intolerability” value (1000 mg QD, 10 evaluable patients) was 3 patients, the “Grade 1–2 TEAEs of diarrhoea” value (1000 mg SRA737 dose level) was 72 % of patients and the “Grade 1–2 TEAEs of nausea” value (1000 mg SRA737 dose level) was 65 % of patients. For the same compound, the “Grade 1–2 TEAEs of vomiting” value (1000 mg SRA737 dose level) was 63 % of patients, the “patients with Grade 3 diarrhoea (GI toxicity above Grade 2)” value (1000 mg dose level) was 1 patient and the “patients with both Grade 3 nausea and vomiting” value (1000 mg dose level) was “single patient”. The “patients with dose-limiting GI intolerability (Grade 1–2 nausea, vomiting, and/or diarrhoea)” value [1] was 2 patients, the “patients with dose-limiting Grade 3 neutropenia” value [1] was 1 patient and the “discontinued due to SRA737-related TEAEs” value (16 patients of 107) was 15.0%. For the same compound, the “Adverse events leading to treatment discontinuation” value (34 patients of 107) was 31.8%, the “Grade 3 or higher TEAE related to SRA737: fatigue” value [2] was 4% and the “Grade 3 or higher TEAE related to SRA737: neutropenia” value [2] was 10%. For the same compound, the “Grade 3 or higher TEAE related to SRA737: rash/rash maculopapular combined” value [2] was 6%, the “Any SRA737-related Grade ≥3 treatment-emergent adverse event (TEAE)” value (Overall (N = 107)) was 33 (30.8) n (%) and the “Any SRA737-related treatment-emergent adverse event (TEAE), any grade” value (Overall (N = 107)) was 98 (91.6) n (%). The “SRA737-related TEAE of Grade 3 or higher: Aspartate aminotransferase increased” value (Overall (N = 107)) was 2 (1.9) n (%), the “SRA737-related TEAE of Grade 3 or higher: Diarrhoea” value (Overall (N = 107)) was 2 (1.9) n (%) and the “SRA737-related TEAE of Grade 3 or higher: Dyspnoea” value (“SRA737-related TEAE … Dyspnoea” below) (Overall (N = 107)) was 2 (1.9) n (%). For the same compound, the “SRA737-related TEAE of Grade 3 or higher: Fatigue” value (Overall (N = 107)) was 2 (1.9) n (%), the “SRA737-related TEAE of Grade 3 or higher: Lymphocyte count decreased” value (Overall (N = 107)) was 3 (2.8) n (%) and the “SRA737-related TEAE of Grade 3 or higher: Neutropenia” value (Overall (N = 107)) was 9 (8.4) n (%). The “SRA737-related TEAE of Grade 3 or higher: Rash” value (Overall (N = 107)) was 3 (2.8) n (%), the “SRA737-related TEAE of Grade 3 or higher: Rash maculopapular” value (from here on “SRA737-related TEAE … Rash maculopapular”) (Overall (N = 107)) was 3 (2.8) n (%) and the “SRA737-related TEAE of Grade 3 or higher: Thrombocytopenia” value (“SRA737-related TEAE … Thrombocytopenia” for short) (Overall (N = 107)) was 3 (2.8) n (%). The “SRA737-related TEAE of any grade: Anaemia” value (Overall (N = 107)) was 16 (15.0) n (%), the “SRA737-related TEAE of any grade: Decreased Appetite” value (Overall (N = 107)) was 19 (17.8) n (%) and the “SRA737-related TEAE of any grade: Diarrhoea” value (Overall (N = 107)) was 67 (62.6) n (%). The “SRA737-related TEAE of any grade: Fatigue” value (Overall (N = 107)) was 41 (38.3) n (%), the “SRA737-related TEAE of any grade: Nausea” value (Overall (N = 107)) was 64 (59.8) n (%) and the “SRA737-related TEAE of any grade: Neutropenia” value (Overall (N = 107)) was 17 (15.9) n (%). For the same compound, the “SRA737-related TEAE of any grade: Vomiting” value (Overall (N = 107)) was 49 (45.8) n (%), the “Any SRA737-related Grade ≥3 treatment-emergent adverse event (TEAE)” value (SRA737 dose > 800 mg (N = 49)) was 19 (38.8) n (%) and the “Any SRA737-related treatment-emergent adverse event (TEAE), any grade” value (SRA737 dose > 800 mg (N = 49)) was 47 (95.9) n (%). The “SRA737-related TEAE of Grade 3 or higher: Aspartate aminotransferase increased” value (SRA737 dose > 800 mg (N = 49)) was 0 n (%), the “SRA737-related TEAE of Grade 3 or higher: Diarrhoea” value (SRA737 dose > 800 mg (N = 49)) was 1 (2.0) n (%) and the “SRA737-related TEAE … Dyspnoea” value (SRA737 dose > 800 mg (N = 49)) was 0 n (%). The “SRA737-related TEAE of Grade 3 or higher: Fatigue” value (SRA737 dose > 800 mg (N = 49)) was 2 (4.1) n (%), the “SRA737-related TEAE of Grade 3 or higher: Lymphocyte count decreased” value (SRA737 dose > 800 mg (N = 49)) was 0 n (%) and the “SRA737-related TEAE of Grade 3 or higher: Neutropenia” value (SRA737 dose > 800 mg (N = 49)) was 5 (10.2) n (%). The “SRA737-related TEAE of Grade 3 or higher: Rash” value (SRA737 dose > 800 mg (N = 49)) was 1 (2.0) n (%), the “SRA737-related TEAE … Rash maculopapular” value (SRA737 dose > 800 mg (N = 49)) was 2 (4.1) n (%) and the “SRA737-related TEAE … Thrombocytopenia” value (SRA737 dose > 800 mg (N = 49)) was 1 (2.0) n (%). For the same compound, the “SRA737-related TEAE of any grade: Anaemia” value (SRA737 dose > 800 mg (N = 49)) was 11 (22.4) n (%), the “SRA737-related TEAE of any grade: Decreased Appetite” value (SRA737 dose > 800 mg (N = 49)) was 7 (14.3) n (%) and the “SRA737-related TEAE of any grade: Diarrhoea” value (SRA737 dose > 800 mg (N = 49)) was 34 (69.4) n (%). For the same compound, the “SRA737-related TEAE of any grade: Fatigue” value (SRA737 dose > 800 mg (N = 49)) was 27 (55.1) n (%), the “SRA737-related TEAE of any grade: Nausea” value (SRA737 dose > 800 mg (N = 49)) was 32 (65.3) n (%) and the “SRA737-related TEAE of any grade: Neutropenia” value (SRA737 dose > 800 mg (N = 49)) was 7 (14.3) n (%). For the same compound, the “SRA737-related TEAE of any grade: Vomiting” value (SRA737 dose > 800 mg (N = 49)) was 28 (57.1) n (%), the “Any SRA737-related Grade ≥3 treatment-emergent adverse event (TEAE)” value (SRA737 dose ≤ 800 mg (N = 58)) was 14 (24.1) n (%) and the “Any SRA737-related treatment-emergent adverse event (TEAE), any grade” value (SRA737 dose ≤ 800 mg (N = 58)) was 51 (87.9) n (%). The “SRA737-related TEAE of Grade 3 or higher: Aspartate aminotransferase increased” value (SRA737 dose ≤ 800 mg (N = 58)) was 2 (3.4) n (%), the “SRA737-related TEAE of Grade 3 or higher: Diarrhoea” value (SRA737 dose ≤ 800 mg (N = 58)) was 1 (1.7) n (%) and the “SRA737-related TEAE … Dyspnoea” value (SRA737 dose ≤ 800 mg (N = 58)) was 2 (3.4) n (%). The “SRA737-related TEAE of Grade 3 or higher: Fatigue” value (SRA737 dose ≤ 800 mg (N = 58)) was 0 n (%), the “SRA737-related TEAE of Grade 3 or higher: Lymphocyte count decreased” value (SRA737 dose ≤ 800 mg (N = 58)) was 3 (5.2) n (%) and the “SRA737-related TEAE of Grade 3 or higher: Neutropenia” value (SRA737 dose ≤ 800 mg (N = 58)) was 4 (6.9) n (%). For the same compound, the “SRA737-related TEAE of Grade 3 or higher: Rash” value (SRA737 dose ≤ 800 mg (N = 58)) was 2 (3.4) n (%), the “SRA737-related TEAE … Rash maculopapular” value (SRA737 dose ≤ 800 mg (N = 58)) was 1 (1.7) n (%) and the “SRA737-related TEAE … Thrombocytopenia” value (SRA737 dose ≤ 800 mg (N = 58)) was 2 (3.4) n (%). For the same compound, the “SRA737-related TEAE of any grade: Anaemia” value (SRA737 dose ≤ 800 mg (N = 58)) was 5 (8.6) n (%), the “SRA737-related TEAE of any grade: Decreased Appetite” value (SRA737 dose ≤ 800 mg (N = 58)) was 12 (20.7) n (%) and the “SRA737-related TEAE of any grade: Diarrhoea” value (SRA737 dose ≤ 800 mg (N = 58)) was 33 (56.9) n (%). The “SRA737-related TEAE of any grade: Fatigue” value (SRA737 dose ≤ 800 mg (N = 58)) was 14 (24.1) n (%), the “SRA737-related TEAE of any grade: Nausea” value (SRA737 dose ≤ 800 mg (N = 58)) was 32 (55.2) n (%) and the “SRA737-related TEAE of any grade: Neutropenia” value (SRA737 dose ≤ 800 mg (N = 58)) was 10 (17.2) n (%). For the same compound, the “SRA737-related TEAE of any grade: Vomiting” value (SRA737 dose ≤ 800 mg (N = 58)) was 21 (36.2) n (%), the “Grade 3 or higher neutropenia rate” value (current study, overall) was 8% and the “Dose-limiting toxicity, events included” value (daily doses of 1000 and 1300 mg QD) was “gastrointestinal events, neutropenia and thrombocytopenia”. For the same compound, the “patients who tolerated the dose but required anti-emetic medication and/or night-time dosing” value (human, in vivo) was 7 patients, the “Fatal adverse events attributed to SRA737” value (in vivo) was “none” and the “Fatal adverse events reported” value (in vivo) was “ten”. For the same compound, the “TEAE attributed to SRA737: anaemia” value [3] was 15%, the “TEAE attributed to SRA737: decreased appetite” value [3] was 18% and the “TEAE attributed to SRA737: diarrhoea” value [3] was 63%. The “TEAE attributed to SRA737: fatigue” value [3] was 38%, the “TEAE attributed to SRA737: nausea” value [3] was 60% and the “TEAE attributed to SRA737: neutropenia” value [3] was 16%. The “TEAE attributed to SRA737: vomiting” value [3] was 46%, the “recommended Phase 2 dose (RP2D)” value (oral monotherapy) was 800 mg QD and the “maximum tolerated dose (MTD)” value (oral monotherapy, continuous daily dosing, 28-day cycles) was 1000 mg QD. The “GI events (diarrhoea, nausea, vomiting) reported at Grade 3 or higher severity” value (patients treated at 800 mg QD or higher) was “less than 5 % of patients”.
